According to patent US7662819B2, “Pteridinone derivatives for use as stearoyl CoA desaturase inhibitors” (Gilead Palo Alto, Inc., priority 2007, dated 2010):

Each molecule was assayed against T1, stearoyl-CoA desaturase (SCD) (Rattus norvegicus, UniProt P07308) (assay: SCD assay in rat liver microsomes ([3H]stearoyl CoA desaturation, adapted from Talamo and Bloch)). Conditions: rat liver microsomes 0.2 mg/ml assay final, 30 min preincubation, 45 min reaction, room temperature.
T1 construct: from tissue; host or cells: liver microsomes of male Sprague Dawley rats, with SCD induced by a carbohydrate-rich diet after fasting/feeding cycles
T1 sequence (P07308 1-358): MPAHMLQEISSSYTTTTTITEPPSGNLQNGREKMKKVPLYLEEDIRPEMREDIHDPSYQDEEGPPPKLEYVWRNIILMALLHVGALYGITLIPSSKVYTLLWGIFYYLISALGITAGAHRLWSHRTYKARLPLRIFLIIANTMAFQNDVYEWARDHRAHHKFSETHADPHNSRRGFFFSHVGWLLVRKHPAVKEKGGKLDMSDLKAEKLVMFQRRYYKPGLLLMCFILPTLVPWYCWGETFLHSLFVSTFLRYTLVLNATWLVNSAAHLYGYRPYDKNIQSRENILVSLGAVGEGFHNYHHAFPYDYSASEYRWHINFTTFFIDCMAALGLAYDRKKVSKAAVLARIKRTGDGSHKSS
Assay type: biochemical
Text: The identification of compounds of the invention as SCD inhibitors was readily accomplished using the SCD enzyme and microsomal assay procedure described in Talamo and Bloch (1969) Analytical Biochemistry 29:300-304.
The rat liver microsomes were collected according to the procedure described in Ozols (1990) Methods Enzm, 182:225.
Male Spraque Dawley Rats were placed on regimented fasting protocol for one week to stimulate SCD enzymatic activity. 48-hour periods were alternated between feeding and fasting to induce and down-regulate SCD activity with SCD activity being induced via carbohydrate rich diet prior to liver perfusion and collection.
The rats were anesthetized with Isoflurane inhalation anesthetic, the liver perfused with cold phosphate buffered saline (PBS), weighed, and chilled in cold homogenization buffer (250 mM sucrose, 10 mM Tris, 1 mM EDTA, pH 7.6.
The livers were finely minced and placed in homogenization tube. 40 mL of homogenization buffer was added to the homogenization tube and the liver homogenized and centrifuged in a pre-chilled […] for 10 min at 4° C.
Following centrifugation, the supernatant was collected and the pellet removed and discarded. The supernatant was centrifuge at 10,000 G for 35 minutes. Following centrifugation, the supernatant was collect and the pellet discarded. The supernatant was then centrifuged in a pre-chilled 45-Ti rotor at 130,000 G (41,000 RPM) for 90 minutes at 4° C.
The supernatant was then aspirated off and the collected microsomal pellet washed in 25 mL of Glycerol PBS (1×PBS 7.4, 20% Glycerol) and resuspended in 4-5 volumes of Glycerol PBS.
The protein concentration of the microsomal preparation was determined by BCA assay (Pierce) and the microsomes were aliquoted and stored at −80° C.
Biobeads were ground to a smaller size in a mortar and pestle and resuspended in 3.6% TCA. The beads were then filtered through […] mesh.
SCD was determined in the desaturase assay buffer. This assay buffer contained 0.1 M Tris buffer, pH 7.2, 2 mM NADH, 4.8 mM ATP, 0.5 mM CoA, 4.8 mM MgCl2, and 0.1% BSA.
The Procedure for the SCD Assay (Adapted from Talamo and Bloch (1969) Analytical Biochemistry 29:300-304)
1 μl of each compound of Formula I was added to an assay plate by a low volume (0.5-10 μL) multichannel pipette. A DMSO control was also prepared. The microsomes were quickly thawed and added to assay buffer so that a concentration of 0.4 mg/ml was achieved (0.2 mg/ml assay final). 50 μl of the microsome suspension in assay buffer was then added into each well in the compound assay plate, the plate was covered, and the microsomes preincubated with the compounds for 30 minutes on the orbital shaker, 50-75 rpm, at room temperature.
After preincubation, the reaction was initiated by the addition of 50 μl of substrate solution (20 μM Stearoyl CoA, [3H]Stearoyl CoA, 74 nCi) to the preincubated microsomes/compound suspensions in MilliQ (Millipore) H2O. The reaction mixtures were then incubated for 45 minutes on the orbital shaker at 50-75 rpm at room temperature.
The reaction was terminated by the addition of 10 μl of 21% […] (TCA) to the reaction mixture followed incubation on the orbital shaker for 30 minutes at 50-75 rpm at room temperature followed by centrifugation for 5 minutes at 3700 rpm.
50 μl of a 6% Bio-Bead suspension in H2O was added to the reaction mixture and the assay plate was sealed. The Bio-Bead mixture was incubated on the orbital shaker for 1 hour, 100-150 rpm at room temperature, and then the mixture was centrifuged at 2000 g for 5 minutes to pellet the Bio-Beads.
25 μl of the supernatant was harvested from each well and transferred to a detection plate. 100 μl of OptiPhase SuperMix scinitillation cocktail (containing sufficient NaOH to neutralize the TCA) was added and the solutions mixed by vigorous shaking (300-400 rpm) for 5 minutes at room temperature. […]
An IC50 of 6120 nM was found for `O=C(NCCn1c(=O)cnc2cnc(NCc3ccc(Cl)c(Cl)c3)nc21)c1ccsc1` [Compound 35, N-[2-(2-{[(3,4-dichlorophenyl)methyl]amino}-7-oxo(8-hydropteridin-8-yl))ethyl]-3-thienylcarboxamide] in this work. An IC50 of 4060 nM was found for `O=C(NCCn1c(=O)c(-c2cccnc2)nc2cnc(NCc3ccc(Cl)c(Cl)c3)nc21)c1ccccc1` [Compound 36, N-[2-(2-{[(3,4-dichlorophenyl)methyl]amino}-7-oxo-6-(3-pyridyl)(8-hydropteridin-8-yl))ethyl]benzamide] in this work. An IC50 of 1600 nM was found for `COc1ccc(-c2nc3cnc(NCc4ccc(Cl)c(Cl)c4)nc3n(CCNC(=O)c3cccnc3)c2=O)cc1` [Compound 4, N-[2-(2-{[(3,4-dichlorophenyl)methyl]amino}-6-(4-methoxyphenyl)-7-oxo(8-hydropteridin-8-yl))ethyl]-3-pyridylcarboxamide] in this work. An IC50 of 470 nM was found for `C/C=C/C(=O)NCCn1c(=O)c(-c2ccc(OC)cc2)nc2cnc(NCc3ccc(Cl)c(Cl)c3)nc21` [Compound 40, (2E)—N-[2-(2-{[(3,4-dichlorophenyl)methyl]amino}-6-(4-methoxyphenyl)-7-oxo(8-hydropteridin-8-yl))ethyl]but-2-enamide] in this work. An IC50 of 1300 nM was found for `COc1ccc(-c2nc3cnc(NCc4cccc(Cl)c4)nc3n(CCNC(C)=O)c2=O)cc1` [Compound 24, N-[2-(2-{[(3-chlorophenyl)methyl]amino}-6-(4-methoxyphenyl)-7-oxo-8-hydropteridin-8-yl)ethyl]acetamide] in this work. An IC50 of 2800 nM was found for `COc1ccc(-c2nc3cnc(NCc4ccc(Cl)c(Cl)c4)nc3n(CCNS(C)(=O)=O)c2=O)cc1` [Compound 2, 2-{[(3,4-dichlorophenyl)methyl]amino}-6-(4-methoxyphenyl)-8-{2-[(methylsulfonyl)amino]ethyl}-8-hydropteridin-7-one] in this work. An IC50 of 1300 nM was found for `COc1ccc(-c2nc3cnc(NCc4ccc(F)cc4)nc3n(CCNC(C)=O)c2=O)cc1` [Compound 10, N-[2-(2-{[(4-fluorophenyl)methyl]amino}-6-(4-methoxyphenyl)-7-oxo-8-hydropteridin-8-yl)ethyl]acetamide] in this work. An IC50 of 2250 nM was found for `COc1ccc(-c2nc3cnc(NCc4ccc(Cl)c(Cl)c4)nc3n(CCNC(=O)c3cccc(F)c3)c2=O)cc1` [Compound 42, N-[2-(2-{[(3,4-dichlorophenyl)methyl]amino}-6-(4-methoxyphenyl)-7-oxo(8-hydropteridin-8-yl))ethyl](3-fluorophenyl)carboxamide] in this work. An IC50 of 2100 nM was found for `CC(=O)NCCn1c(=O)c(C(F)(F)F)nc2cnc(NCc3ccc(Cl)c(Cl)c3)nc21` [Compound 13, N-[2-(2-{[(3,4-dichlorophenyl)methyl]amino}-7-oxo-6-(trifluoromethyl)-8-hydropteridin-8-yl)ethyl]acetamide] in this work. An IC50 of 18000 nM was found for `CCCC(=O)NCCn1c(=O)c(-c2ccc(OC)cc2)nc2cnc(NCc3ccc(Cl)c(Cl)c3)nc21` [Compound 5, N-[2-(2-{[(3,4-dichlorophenyl)methyl]amino}-6-(4-methoxyphenyl)-7-oxo-8-hydropteridin-8-yl)ethyl]butanamide] in this work. An IC50 of 7800 nM was found for `CC(=O)NCCn1c(=O)c(-c2ccc(Cl)cc2)nc2cnc(NCc3cccc(Cl)c3)nc21` [Compound 26, N-[2-(6-(4-chlorophenyl)-2-{[(3-chlorophenyl)methyl]amino}-7-oxo-8-hydropteridin-8-yl)ethyl]acetamide] in this work. An IC50 of 470 nM was found for `COc1ccc(-c2nc3cnc(NCc4ccc(Cl)c(Cl)c4)nc3n(CCNC(=O)c3ccsc3)c2=O)cc1` [Compound 23, N-[2-(2-{[(3,4-dichlorophenyl)methyl]amino}-6-(4-methoxyphenyl)-7-oxo(8-hydropteridin-8-yl))ethyl]-3-thienylcarboxamide] in this work. An IC50 of 2000 nM was found for `CC(=O)NCCn1c(=O)c(-c2cccs2)nc2cnc(NCc3ccc(Cl)c(Cl)c3)nc21` [Compound 14, N-[2-(2-{[(3,4-dichlorophenyl)methyl]amino}-7-oxo-6-(2-thienyl)-8-hydropteridin-8-yl)ethyl]acetamide] in this work. An IC50 of 3400 nM was found for `CC(=O)NCCn1c(=O)c(-c2cccs2)nc2cnc(NCc3ccc(F)c(F)c3)nc21` [Compound 19, N-[2-(2-{[(3,4-difluorophenyl)methyl]amino}-7-oxo-6-(2-thienyl)-8-hydropteridin-8-yl)ethyl]acetamide] in this work. An IC50 of 5000 nM was found for `COc1ccc(-c2nc3cnc(NCc4ccc(Cl)c(Cl)c4)nc3n([C@@H]3CCNC3)c2=O)cc1` [Compound 3, 8-((3R)pyrrolidin-3-yl)-2-{[(3,4-dichlorophenyl)methyl]amino}-6-(4-methoxyphenyl)-8-hydropteridin-7-one] in this work. An IC50 of 5800 nM was found for `O=c1c(-c2cccnc2)nc2cnc(NCc3ccc(Cl)c(Cl)c3)nc2n1CCn1cncn1` [Compound 15, 2-{[(3,4-dichlorophenyl)methyl]amino}-6-(3-pyridyl)-8-(2-(1,2,4-triazolyl)ethyl)-8-hydropteridin-7-one] in this work. An IC50 of 560 nM was found for `COc1ccc(-c2nc3cnc(NCc4ccc(Cl)c(Cl)c4)nc3n(CCNC(=O)c3ccccc3)c2=O)cc1` [Compound 7, N-[2-(2-{[(3,4-dichlorophenyl)methyl]amino}-6-(4-methoxyphenyl)-7-oxo(8-hydropteridin-8-yl))ethyl]benzamide] in this work. An IC50 of 2720 nM was found for `O=C(NCCn1c(=O)cnc2cnc(NCc3ccc(Cl)c(Cl)c3)nc21)c1ccccc1` [Compound 34, N-[2-(2-{[(3,4-dichlorophenyl)methyl]amino}-7-oxo(8-hydropteridin-8-yl))ethyl]benzamide] in this work. An IC50 of 430 nM was found for `COc1ccc(-c2nc3cnc(NCc4ccc(Cl)c(Cl)c4)nc3n(CCNC(=O)c3ccc(F)cc3)c2=O)cc1` [Compound 29, N-[2-(2-{[(3,4-dichlorophenyl)methyl]amino}-6-(4-methoxyphenyl)-7-oxo(8-hydropteridin-8-yl))ethyl](4-fluorophenyl)carboxamide] in this work. An IC50 of 260 nM was found for `COc1ccc(-c2nc3cnc(NCc4ccc(Cl)c(Cl)c4)nc3n(CCNC=O)c2=O)cc1` [Compound 41, N-[2-(2-{[(3,4-dichlorophenyl)methyl]amino}-6-(4-methoxyphenyl)-7-oxo-8-hydropteridin-8-yl)ethyl]carboxamide] in this work. An IC50 of 2800 nM was found for `COc1ccc(-c2nc3cnc(NCc4ccc(Cl)c(Cl)c4)nc3n(CCNC(=O)c3ccncc3)c2=O)cc1` [Compound 39, N-[2-(2-{[(3,4-dichlorophenyl)methyl]amino}-6-(4-methoxyphenyl)-7-oxo(8-hydropteridin-8-yl))ethyl]-4-pyridylcarboxamide] in this work. An IC50 of 22000 nM was found for `CC(=O)NCCn1c(=O)c(C(F)(F)F)nc2cnc(NCc3ccc(F)cc3)nc21` [Compound 20, N-[2-(2-{[(4-fluorophenyl)methyl]amino}-7-oxo-6-(trifluoromethyl)-8-hydropteridin-8-yl)ethyl]acetamide] in this work. An IC50 of 2260 nM was found for `COc1ccc(-c2nc3cnc(NCc4ccc(Cl)c(Cl)c4)nc3n(CCNC(=O)c3ccco3)c2=O)cc1` [Compound 31, N-[2-(2-{[(3,4-dichlorophenyl)methyl]amino}-6-(4-methoxyphenyl)-7-oxo(8-hydropteridin-8-yl))ethyl]-2-furylcarboxamide] in this work.
